Source: US6723715B1, “14, 15-cyclopropanosteroids of the 19-norandrostane series, method for producing said compounds and pharmaceutical preparation containing said compounds” (Schering AG, priority 1999, dated 2004)

Tests used:
androgen receptor = biological target: T1, androgen receptor (Homo sapiens, UniProt P10275); experiment: binding to the androgen receptor relative to R 1881; settings: R 1881=100%
T1 sequence (P10275 1-920): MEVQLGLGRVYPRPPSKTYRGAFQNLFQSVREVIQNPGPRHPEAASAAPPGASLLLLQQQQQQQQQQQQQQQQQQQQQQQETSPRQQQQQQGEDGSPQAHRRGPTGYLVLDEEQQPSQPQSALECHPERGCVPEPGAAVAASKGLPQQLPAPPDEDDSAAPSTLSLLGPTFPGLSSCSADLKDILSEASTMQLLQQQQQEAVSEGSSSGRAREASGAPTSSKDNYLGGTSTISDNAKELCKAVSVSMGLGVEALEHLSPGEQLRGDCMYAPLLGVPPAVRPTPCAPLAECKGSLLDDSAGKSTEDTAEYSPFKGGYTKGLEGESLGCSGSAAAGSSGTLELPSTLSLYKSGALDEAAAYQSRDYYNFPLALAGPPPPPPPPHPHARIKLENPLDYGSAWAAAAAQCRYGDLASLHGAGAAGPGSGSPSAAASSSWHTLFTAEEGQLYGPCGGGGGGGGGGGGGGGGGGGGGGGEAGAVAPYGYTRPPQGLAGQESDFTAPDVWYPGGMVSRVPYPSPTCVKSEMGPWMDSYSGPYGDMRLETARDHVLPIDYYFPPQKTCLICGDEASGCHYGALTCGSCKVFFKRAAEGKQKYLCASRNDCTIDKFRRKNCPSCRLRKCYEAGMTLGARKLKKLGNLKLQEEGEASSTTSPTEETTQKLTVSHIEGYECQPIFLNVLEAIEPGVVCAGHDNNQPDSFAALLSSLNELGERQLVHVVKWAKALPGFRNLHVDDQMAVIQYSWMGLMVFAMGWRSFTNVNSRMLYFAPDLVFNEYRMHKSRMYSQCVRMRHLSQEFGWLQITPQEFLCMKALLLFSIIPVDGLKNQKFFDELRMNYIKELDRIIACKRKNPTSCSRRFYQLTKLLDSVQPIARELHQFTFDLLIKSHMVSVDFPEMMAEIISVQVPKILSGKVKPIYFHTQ

progesterone receptor = biological target: T2, progesterone receptor (Homo sapiens, UniProt P06401); experiment: binding to the progesterone receptor relative to progesterone; settings: progesterone=100%
T2 sequence (P06401 1-933): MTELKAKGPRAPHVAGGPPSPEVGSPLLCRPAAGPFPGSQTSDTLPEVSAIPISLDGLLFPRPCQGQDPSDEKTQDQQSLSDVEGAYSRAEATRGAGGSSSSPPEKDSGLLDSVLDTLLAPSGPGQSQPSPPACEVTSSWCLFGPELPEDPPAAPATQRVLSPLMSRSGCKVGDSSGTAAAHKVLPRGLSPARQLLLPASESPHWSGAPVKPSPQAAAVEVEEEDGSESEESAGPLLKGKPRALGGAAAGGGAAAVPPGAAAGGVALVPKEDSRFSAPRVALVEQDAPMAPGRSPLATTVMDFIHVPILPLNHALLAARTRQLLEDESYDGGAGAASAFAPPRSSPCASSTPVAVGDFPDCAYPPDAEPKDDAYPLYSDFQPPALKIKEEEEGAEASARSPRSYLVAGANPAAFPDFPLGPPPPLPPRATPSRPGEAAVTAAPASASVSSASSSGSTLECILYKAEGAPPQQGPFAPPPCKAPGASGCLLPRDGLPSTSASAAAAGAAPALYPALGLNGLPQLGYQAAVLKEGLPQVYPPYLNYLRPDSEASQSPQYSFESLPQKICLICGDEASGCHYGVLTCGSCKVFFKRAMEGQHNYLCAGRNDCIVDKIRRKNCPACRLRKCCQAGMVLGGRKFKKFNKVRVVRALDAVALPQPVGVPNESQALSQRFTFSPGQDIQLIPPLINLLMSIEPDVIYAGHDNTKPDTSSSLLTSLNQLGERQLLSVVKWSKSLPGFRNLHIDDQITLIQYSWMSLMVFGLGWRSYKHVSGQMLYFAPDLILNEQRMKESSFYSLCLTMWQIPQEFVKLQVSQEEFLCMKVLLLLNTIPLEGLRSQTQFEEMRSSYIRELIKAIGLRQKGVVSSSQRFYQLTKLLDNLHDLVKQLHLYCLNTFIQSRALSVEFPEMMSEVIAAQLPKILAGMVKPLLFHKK

SMILES	binds to the extent of % to the androgen receptor (androgen receptor)	binds to the extent of % to the progesterone receptor (progesterone receptor)
C[C@]12CC[C@H]3[C@@H](CCC4=C(Cl)C(=O)CC[C@@H]43)[C@@]13C[C@H]3C[C@@H]2O [4-Chloro-17β-hydroxy-14α,15α-methylene-estr-4-ene-3-one]	98%	5.5%
C[C@]12C=CC3=C4CCC(=O)C=C4CC[C@H]3[C@@]13C[C@H]3C[C@@H]2O [17β-Hydroxy-14α,15α-methylene-estr-4,9,11-triene-3-one]	58%	36%
